In assay [1] the target is recombinant human full-length Bruton Agammaglobulinemia Tyrosine Kinase (Btk) (Homo sapiens (Human), UniProt Q06187). The assay can be described thus: Btk Kinase Inhibition Assay (fluorescence polarization). As to conditions: 10 μM ATP, 250 μM substrate, 60 minutes; Ki calculated from IC50 using the Cheng-Prusoff equation. Type of assay: biochemical. The method, boiled down:
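His-tagged full-length enzyme reacted 60 min at room temperature with 250 μM substrate, 10 μM ATP and compound dilutions; stopped with EDTA/detection reagents, read by fluorescence polarization. IC50 from nonlinear fit, converted to Ki via Cheng-Prusoff using experimentally determined ATP Km.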

Assay [2] deals with Splenocytes (B cell proliferation stimulated with anti-IgM F(ab′)2). Description: Splenic Cell Proliferation Assay. Type of assay: cell-based. To be noted: Mus musculus, Splenocyte, 72 h, CD1 mouse splenocytes, 2.5 ug/ml anti-IgM F(ab′)2 for 72 h, Cell Titer-Glo; read-out: EC50 (nM), Inhibition of splenic cell proliferation. In short, it runs like this:
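Splenocytes from 6-week male CD1 mice, adherent cells removed, seeded at 50,000 cells/well and pre-treated 1 h with compound curves (top 10,000 nM). Stimulated with 2.5 ug/ml anti-IgM F(ab′)2 for 72 h; proliferation by CellTiter-Glo luminescence, EC50 relative to vehicle controls.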
(In general: ATP-based viability assays read luminescence as a measure of living cells.)

The next assay has as its system Balb/c mice. Description: Mouse Arthus. Type of assay: in vivo. As to conditions: oral gavage at 30 mg/kg, 1 h pre-treatment. The procedure:
Mouse Arthus studies were conducted as reported in Braselmann S, Taylor V, Zhao H, Wang S, Sylvain C, Baluom M, Qu K, Herlaar E, Lau A, Young C, Wong B R, Lovell S, Sun T, Park G, Argade A, Jurcevic S, Pine P, Singh R, Grossbard E B, Payan D G, Masuda E S: R406 an orally available spleen tyrosine kinase inhibitor blocks fc receptor signaling and reduces immune-complex mediated inflammation. J Pharmacol Exp Ther, 2006, 319:998-1008.
In summary, female Balb/c mice (6-7 weeks on arrival) were habituated to the animal facility for at least 4 days. On the day of the experiment, animals were pre-treated (t=minus 1 h) with compound or vehicle alone by gavage (PO). At t=0, animals were injected intravenously (IV; 0.1 mL/mouse) with saline containing chicken ovalbumin and Evan's blue (10 mg/mL of each). Ten minutes later (t=10 min), animals were anesthesized with isoflurane, the dorsal surface was shaved and rabbit anti-chicken ovalbumin antibody was then injected intradermally at one site on the right side of the animal (25 μg in 30 μL). The same amount of isotype control antibody was then injected on the left side.
The animals were then returned to their home cage and skin punches (8 mm) were collected from each injection site four hours later. The samples were placed in 1 mL formamide overnight at 80 degrees C. (1 skin biopsy per 1 mL formamide in a glass tube). The amount of Evan's blue in the formamide solution was then assessed by spectrophotometry (630 nm) as a measure of serum extravasation into the dermis.

The subject of another assay is B10R111 mice. Description: Mouse CIA model. As to conditions: oral gavage at 30 mg/kg (BID). It counts as in vivo. The procedure: Mouse CIA model was performed using the methods described by Trentham D E, Townes A S, Kang A H. Autoimmunity to Type II Collagen: An Experimental Model of Arthritis. J Exp Med 1977; 857-868, and Bendele A M. Animal Models of Rheumatoid Arthritis. J Musculoskel Interact 2001; 377-385.
In summary, male B10R111 mice (7-9 wks on arrival) were habituated to the animal facility for at least 4 days. On experimental day 0 mice were anaesthetized with isoflurane and the dorsal surface was shaved. Collagen, emulsified in Freund's complete adjuvant (CFA) supplemented with additional mycobacterium tuberculosis (TB) H37Ra, was injected intradermally at the base of the tail (0.15 mL/animal; 2 mg/mL collagen and 2.5 mg/mL TB in CFA). This CFA treatment was repeated on day 15.
From day 15 to the end of the study animals were scored daily for signs of arthritis. On the first day of disease (RA Day 1) animals were recruited to the study and grouped using a balanced design based on arthritis score. Once recruited, animals were weighed and dosed twice daily by gavage (PO, BID). Recruited animals were then scored twice a week on RA days 1, 5, 8 and 12. At the end of the study (RA day 12) animals were weighed and scored.

A value given as a limit tells only on which side of the number the result lay.

recombinant human full-length Bruton Agammaglobulinemia Tyrosine Kinase (Btk), sequence (Q06187 whole entry): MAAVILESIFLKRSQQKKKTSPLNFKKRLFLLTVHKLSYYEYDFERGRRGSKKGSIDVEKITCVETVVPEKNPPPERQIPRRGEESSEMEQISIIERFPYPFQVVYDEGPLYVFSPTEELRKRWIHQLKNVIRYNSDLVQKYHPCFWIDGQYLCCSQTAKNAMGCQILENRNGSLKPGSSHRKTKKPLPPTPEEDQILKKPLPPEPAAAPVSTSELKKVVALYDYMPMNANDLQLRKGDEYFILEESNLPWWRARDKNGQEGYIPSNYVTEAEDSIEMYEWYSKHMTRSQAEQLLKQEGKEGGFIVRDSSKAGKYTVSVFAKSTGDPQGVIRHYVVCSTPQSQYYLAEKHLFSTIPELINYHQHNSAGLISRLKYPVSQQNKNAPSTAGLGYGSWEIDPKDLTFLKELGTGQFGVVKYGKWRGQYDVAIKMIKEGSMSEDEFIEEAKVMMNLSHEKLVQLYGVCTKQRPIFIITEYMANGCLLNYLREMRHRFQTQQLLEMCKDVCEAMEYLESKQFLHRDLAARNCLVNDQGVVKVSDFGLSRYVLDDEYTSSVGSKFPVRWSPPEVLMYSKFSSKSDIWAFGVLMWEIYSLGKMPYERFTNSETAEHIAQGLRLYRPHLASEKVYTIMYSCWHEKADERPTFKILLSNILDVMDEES

In general, Ki refers to the equilibrium dissociation constant of an inhibitor or competing ligand from its target. `Nc1ncnc2c1c(-c1ccc(Oc3cccc(OCc4cncs4)c3)cc1)nn2C1CCCC1` [Compound 14]: the Ki in assay [1] was under 100 nM. The EC50 in assay [2] is under 100 nM. In the assay on Balb/c mice, the “efficacy in mouse Arthus (Evan's blue extravasation)” value (“efficacy in mouse Arthus” below) is recorded as “demonstrated efficacy”. Besides, the “efficacy in mouse CIA model (arthritis score)” value (“efficacy in mouse CIA model” below) in the assay with B10R111 mice was “demonstrated efficacy”.
Regarding `Cc1ncc(COc2cc(F)cc(Oc3ccc(-c4nn(C5CCCC5)c5ncnc(N)c45)cc3)c2)s1` [Compound 58], in assay [1], the Ki is under 100 nM. Also, the EC50 in assay [2] was under 100 nM. Also, the “efficacy in mouse Arthus” value in the assay with Balb/c mice is “demonstrated efficacy”. The “efficacy in mouse CIA model” value in the assay with B10R111 mice is listed as “demonstrated efficacy”.
As to `Cc1ncc(COc2cc(F)cc(Oc3ccc(-c4nn(C(C)C)c5ncnc(N)c45)cc3)c2)s1` [Compound 78], the inhibitory constant (Ki) in assay [1] was under 100 nM. In addition, in assay [2], the EC50 was under 100 nM. Besides, the “efficacy in mouse Arthus” value in the assay on Balb/c mice is “demonstrated efficacy”. Besides, the “efficacy in mouse CIA model” value with B10R111 mice is “demonstrated efficacy”.
For `Cc1ccc(COc2cc(F)cc(Oc3ccc(-c4nn(C(C)C)c5ncnc(N)c45)cc3)c2)cn1` [Compound 85], in assay [1], the Ki is under 100 nM. Further, the EC50 in assay [2] is under 100 nM. In addition, in the assay on Balb/c mice, the “efficacy in mouse Arthus” value is given as “demonstrated efficacy”. In addition, the “efficacy in mouse CIA model” value in the assay with B10R111 mice is given as “demonstrated efficacy”.
Turning to `Cc1ncc(COc2cc(F)cc(Oc3ccc(-c4nn(C(C)C)c5ncnc(N)c45)cc3)c2)cn1` [Compound 102], in assay [1], the Ki was under 100 nM. For the same molecule, the EC50 in assay [2] is under 100 nM. Moreover, the “efficacy in mouse Arthus” value in the assay on Balb/c mice is recorded as “demonstrated efficacy”. The “efficacy in mouse CIA model” value in the assay on B10R111 mice is “demonstrated efficacy”.
`Cc1ncc(COc2cc(F)cc(Oc3ccc(-c4nn(CC(C)(C)O)c5ncnc(N)c45)cc3)c2)s1` [Compound 117]: the inhibition constant Ki in assay [1] was under 100 nM. Besides, the EC50 in assay [2] was under 100 nM. Also, in the assay on Balb/c mice, the “efficacy in mouse Arthus” value is “demonstrated efficacy”.
Consider `Cc1ncc(COc2cc(F)cc(Oc3ccc(-c4nn(CC5(C)COC5)c5ncnc(N)c45)cc3)c2)s1` [Compound 125], for which, in assay [1], the Ki was under 100 nM. The EC50 in assay [2] was under 100 nM. In the assay on Balb/c mice, the “efficacy in mouse Arthus” value was “demonstrated efficacy”.

The values above are taken from patent US9796716B2, “Selective inhibitors of Tec and Src protein kinase families” (Pharmascience, Inc., priority 2012, dated 2017).
